Format in all cases: biochemical
The target of one assay is T1, KDM4C (JMJD2C) (Homo sapiens, UniProt Q9H3R0).
T1 construct: 1-349; host or cells: E. coli
T1 sequence (Q9H3R0 1-349): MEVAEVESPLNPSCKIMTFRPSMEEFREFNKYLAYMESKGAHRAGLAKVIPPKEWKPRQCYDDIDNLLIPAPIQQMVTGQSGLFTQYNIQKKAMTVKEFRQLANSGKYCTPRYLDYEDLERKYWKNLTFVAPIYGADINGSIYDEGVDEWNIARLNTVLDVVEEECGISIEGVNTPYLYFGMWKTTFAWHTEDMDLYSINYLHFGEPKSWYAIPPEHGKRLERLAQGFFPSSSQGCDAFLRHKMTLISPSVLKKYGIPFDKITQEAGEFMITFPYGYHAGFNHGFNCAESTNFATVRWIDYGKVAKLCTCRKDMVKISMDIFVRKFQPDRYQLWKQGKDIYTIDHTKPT
The experiment in a line: Histone lysine demethylase AlphaLISA assay, KDM4C. The following applies: in vitro enzyme, read-out: KDM4C IC50 (HDME Inhibition). Here is the method:
(§1) Histone lysine demethylase AlphaLISA assays are performed to determine IC50 values. […] Assays are performed analogously to the protocol described by PerkinElmer (Roy et al. PerkinElmer Technical Note: AlphaLISA #12, April 2011).
(§2) Assays are performed analogously to the protocol described by PerkinElmer (Roy et al. PerkinElmer Technical Note: AlphaLISA #12, April 2011).
(§3) Enzymes (final assay concentration 0.1-2.5 nM) are dissolved in enzyme buffer and incubated for 10 min before 5 μL is added to 5 μL 3% DMSO solutions of compounds in enzyme buffer, incubated for another 10 minutes, before 5 μL substrate solution is added and the reaction mixture is incubated at room temperature. 10 μL acceptor beads, suspended Epigenetic Buffer (Perkin Elmer AL008) from stock, are added and the suspension is incubated in the dark at room temperature, before 10 μL suspension of streptavidin donor beads (Perkin Elmer 6760002) in Epigenetic Buffer is added. After incubation at room temperature in the dark the plates are read.
(§4) Substrate solution: Substrate (final assay concentration 50-200 nM), 50 mM Hepes (pH 7.4-8.0), 0.003% Tween-20, 0.1% BS, 25 μM L-Asc, 10 μM α-KG. Enzyme Buffer: 50 mM Hepes (pH 7.4-8.0), 0.003% Tween-20, 0.1% BSA; 5 μM (NH4)2Fe(SO4)2
On the technique in general: Alpha assays give light when donor and acceptor beads are brought close together.

The target in the next assay is PHF8 (KDM7) (Homo sapiens, UniProt Q9UPP1). The experiment in a line: Histone lysine demethylase AlphaLISA assay, PHF8. The following applies: in vitro enzyme, read-out: PHF8 IC50 (HDME Inhibition). Here is the method:
as §1, §2, §3, §4

In a further assay the target is T2, KDM2B (FBXL10) (Homo sapiens, UniProt Q8NHM5).
T2 construct: 1-650; purchased BPS Bioscience, US; host or cells: Bac (baculovirus/insect cells)
T2 sequence (Q8NHM5 1-650): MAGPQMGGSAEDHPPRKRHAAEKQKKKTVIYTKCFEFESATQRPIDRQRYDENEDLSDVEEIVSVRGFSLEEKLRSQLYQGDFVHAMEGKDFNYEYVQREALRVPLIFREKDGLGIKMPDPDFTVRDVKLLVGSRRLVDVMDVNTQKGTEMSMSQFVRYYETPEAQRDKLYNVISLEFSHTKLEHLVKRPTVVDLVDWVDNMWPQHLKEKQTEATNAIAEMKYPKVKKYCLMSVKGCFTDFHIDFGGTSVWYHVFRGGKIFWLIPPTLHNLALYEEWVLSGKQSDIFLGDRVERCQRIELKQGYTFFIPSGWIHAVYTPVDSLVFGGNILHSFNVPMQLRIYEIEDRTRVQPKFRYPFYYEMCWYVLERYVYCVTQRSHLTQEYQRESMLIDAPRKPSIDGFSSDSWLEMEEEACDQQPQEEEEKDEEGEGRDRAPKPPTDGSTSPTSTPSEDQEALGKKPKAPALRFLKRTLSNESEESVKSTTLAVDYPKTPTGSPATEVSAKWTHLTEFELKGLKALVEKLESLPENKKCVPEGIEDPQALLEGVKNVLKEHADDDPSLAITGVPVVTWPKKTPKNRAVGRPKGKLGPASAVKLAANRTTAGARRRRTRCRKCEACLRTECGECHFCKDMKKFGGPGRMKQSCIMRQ
The experiment in a line: Histone lysine demethylase AlphaLISA assay, KDM2B. The following applies: in vitro enzyme, read-out: KDM2B IC50 (HDME Inhibition). As for the experimental part: as §1, §2, §3, §4

Another assay concerns the target T3, KDM6A (UTX) (Homo sapiens, UniProt O15550).
T3 construct: 919-1401; host or cells: E. coli
Put plainly: Histone lysine demethylase AlphaLISA assay, KDM6A. The following applies: in vitro enzyme, read-out: KDM6A IC50 (HDME Inhibition). Here is the method: as §1, §2, §3, §4

The target in another assay is T4, KDM5B (PLU-1) (Homo sapiens, UniProt Q9UGL1).
T4 construct: 1-809; host or cells: E. coli
T4 sequence (Q9UGL1 1-809): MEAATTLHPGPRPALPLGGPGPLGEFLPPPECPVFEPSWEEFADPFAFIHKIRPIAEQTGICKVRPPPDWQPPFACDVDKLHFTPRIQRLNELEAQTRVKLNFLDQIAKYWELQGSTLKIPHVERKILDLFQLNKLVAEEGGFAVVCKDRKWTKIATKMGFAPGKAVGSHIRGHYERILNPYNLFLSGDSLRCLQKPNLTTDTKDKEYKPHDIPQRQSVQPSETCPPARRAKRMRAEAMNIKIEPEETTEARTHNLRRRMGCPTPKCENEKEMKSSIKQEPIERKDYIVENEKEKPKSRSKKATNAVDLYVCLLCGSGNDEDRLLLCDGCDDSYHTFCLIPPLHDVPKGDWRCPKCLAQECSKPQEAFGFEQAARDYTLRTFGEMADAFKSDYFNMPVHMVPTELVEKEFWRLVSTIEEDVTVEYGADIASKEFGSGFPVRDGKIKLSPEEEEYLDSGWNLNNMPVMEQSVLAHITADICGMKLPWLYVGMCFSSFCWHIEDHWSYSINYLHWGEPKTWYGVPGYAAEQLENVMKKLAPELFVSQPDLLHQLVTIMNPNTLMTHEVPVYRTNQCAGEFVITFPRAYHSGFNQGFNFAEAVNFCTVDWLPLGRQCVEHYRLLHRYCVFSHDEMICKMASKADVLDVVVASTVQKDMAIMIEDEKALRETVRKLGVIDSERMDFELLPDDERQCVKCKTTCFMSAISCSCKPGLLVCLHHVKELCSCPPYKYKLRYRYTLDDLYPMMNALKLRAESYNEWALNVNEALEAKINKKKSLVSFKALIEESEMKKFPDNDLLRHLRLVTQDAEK
Put plainly: Histone lysine demethylase AlphaLISA assay, KDM5B. As to conditions: in vitro enzyme, read-out: KDM5B IC50 (HDME Inhibition). Here is the method:
as §1, §2, §3, §4

By IC50 is commonly meant the point on the concentration scale where inhibition reaches its midpoint.

Molecules are shown by their SMILES. Some results are limits rather than exact numbers.

T3 sequence (O15550 919-1401): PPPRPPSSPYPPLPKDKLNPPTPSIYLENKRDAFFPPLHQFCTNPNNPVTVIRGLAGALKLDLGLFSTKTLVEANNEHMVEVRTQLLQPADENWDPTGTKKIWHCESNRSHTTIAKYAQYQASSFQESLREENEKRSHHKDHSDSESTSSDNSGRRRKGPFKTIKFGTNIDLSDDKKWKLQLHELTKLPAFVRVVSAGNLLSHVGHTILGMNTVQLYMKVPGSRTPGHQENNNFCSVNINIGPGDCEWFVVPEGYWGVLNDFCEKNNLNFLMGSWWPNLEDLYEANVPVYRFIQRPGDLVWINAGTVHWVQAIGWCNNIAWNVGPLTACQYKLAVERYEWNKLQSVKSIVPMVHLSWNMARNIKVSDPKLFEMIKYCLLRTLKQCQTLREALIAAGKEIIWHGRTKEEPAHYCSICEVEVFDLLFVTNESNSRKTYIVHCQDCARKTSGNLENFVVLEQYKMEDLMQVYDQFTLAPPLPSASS
Sequence of PHF8 (KDM7) (Q9UPP1 whole entry): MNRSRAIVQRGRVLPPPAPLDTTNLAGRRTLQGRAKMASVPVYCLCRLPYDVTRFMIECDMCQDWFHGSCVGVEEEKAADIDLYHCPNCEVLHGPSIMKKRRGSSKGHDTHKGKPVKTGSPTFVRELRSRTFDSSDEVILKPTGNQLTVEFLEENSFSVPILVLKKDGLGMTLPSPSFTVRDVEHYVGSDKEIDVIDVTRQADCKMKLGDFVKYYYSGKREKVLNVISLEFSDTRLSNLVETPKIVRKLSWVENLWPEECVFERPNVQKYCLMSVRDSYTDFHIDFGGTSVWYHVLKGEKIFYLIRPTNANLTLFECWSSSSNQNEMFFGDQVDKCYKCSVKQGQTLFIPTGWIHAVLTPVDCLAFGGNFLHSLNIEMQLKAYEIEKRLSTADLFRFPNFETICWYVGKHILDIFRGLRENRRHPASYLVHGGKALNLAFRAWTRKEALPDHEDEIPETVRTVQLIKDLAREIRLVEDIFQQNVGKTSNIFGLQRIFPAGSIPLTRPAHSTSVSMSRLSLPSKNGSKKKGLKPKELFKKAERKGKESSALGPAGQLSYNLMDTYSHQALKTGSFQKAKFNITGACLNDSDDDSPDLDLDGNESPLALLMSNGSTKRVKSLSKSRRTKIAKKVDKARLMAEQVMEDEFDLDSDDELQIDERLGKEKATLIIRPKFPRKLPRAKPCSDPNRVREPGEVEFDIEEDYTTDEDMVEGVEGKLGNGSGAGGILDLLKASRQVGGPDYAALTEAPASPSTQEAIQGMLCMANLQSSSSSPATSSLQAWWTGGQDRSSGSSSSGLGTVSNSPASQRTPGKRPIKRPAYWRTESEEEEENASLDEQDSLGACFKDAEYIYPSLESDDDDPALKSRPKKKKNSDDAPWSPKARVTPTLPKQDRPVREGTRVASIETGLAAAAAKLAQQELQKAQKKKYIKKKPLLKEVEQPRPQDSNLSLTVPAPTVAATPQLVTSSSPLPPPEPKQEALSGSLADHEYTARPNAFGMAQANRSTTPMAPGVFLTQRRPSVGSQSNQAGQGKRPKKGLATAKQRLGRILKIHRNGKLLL

Consider `O=C(O)c1ccnc(CN2CCCC[C@H]2CC(=O)N2CCCCC2)c1` [Compound 70, 2-{[(2S)-2-[2-oxo-2-(piperidin-1-yl)ethyl]piperidin-1-yl]methyl}pyridine-4-carboxylic acid], for which the 50% inhibitory concentration (IC50) on KDM4C (JMJD2C) and at PHF8 (KDM7) was above 2500 nM each time.

As for `CC(C)C[C@H](NCc1cc(C(=O)O)ccn1)C(=O)NCc1ccccc1NC(=O)C1CC1C` (stereo partly drawn) [Compound 7, 2-({[(1S)-3-methyl-1-({[2-(2-methylcyclopropane-amido)phenyl]methyl}carbamoyl)butyl]amino}methyl)pyridine-4-carboxylic acid], the values for the IC50 on KDM2B (FBXL10), on PHF8 (KDM7) and on KDM6A (UTX) were 250 to 2500 nM, 250 to 2500 nM and above 2500 nM, respectively.

For the molecule `CC(C)C[C@H](NCc1cc(C(=O)O)ccn1)C(=O)NCC1CCS(=O)(=O)C1` (stereo partly drawn) [Compound 38, 2-({[(1S)-1-{[(1,1-dioxo-1-thiolan-3-yl)methyl]carbamoyl}-3-methylbutyl]amino}methyl)pyridine-4-carboxylic acid], the IC50 was 250 to 2500 nM on KDM2B (FBXL10), 250 to 2500 nM on PHF8 (KDM7) and above 2500 nM at KDM6A (UTX).

Take `CCN1CC[C@@H](CNCc2cc(C(=O)O)ccn2)C1=O` [Compound 105, 2-[({[(3S)-1-ethyl-2-oxopyrrolidin-3-yl]methyl}amino)methyl]pyridine-4-carboxylic acid]: the values for the half-inhibitory concentration (IC50) at KDM2B (FBXL10), at PHF8 (KDM7) and on KDM6A (UTX) were below 250 nM, below 250 nM and above 2500 nM, respectively.

For the molecule `CC(N[C@@H](C)C(=O)NCc1ccccc1)c1cc(C(=O)O)ccn1` (stereo partly drawn) [Compound 36, 2-(1-{[(1S)-1-(benzylcarbamoyl)ethyl]amino}ethyl)pyridine-4-carboxylic acid], the IC50 on KDM2B (FBXL10) was 250 to 2500 nM; on PHF8 (KDM7) it was 250 to 2500 nM; on KDM6A (UTX) it was above 2500 nM.

In the case of `O=C(O)c1ccnc(CNC2CCc3c(Br)ccnc32)c1` (centres unmarked) [Compound 91, 2-[({4-bromo-5H,6H,7H-cyclopenta[b]pyridin-7-yl}amino)methyl]pyri-dine-4-carboxylic acid], the IC50 was 250 to 2500 nM at KDM4C (JMJD2C) and below 250 nM on KDM5B (PLU-1).

On to `CC(N[C@@H](C)c1nccs1)c1cc(C(=O)O)ccn1` (stereo partly drawn) [Compound 28, 2-(1-{[(1S)-1-(1,3-thiazol-2-yl)ethyl]amino}ethyl) pyridine-4-carboxylic acid], for which the IC50 on KDM2B (FBXL10) was 250 to 2500 nM; on PHF8 (KDM7), 250 to 2500 nM; on KDM6A (UTX) it was above 2500 nM.

For `CCNC(=O)C1CCN(Cc2cc(C(=O)O)ccn2)CC1` [Compound 75, 2-{[4-(ethylcarbamoyl)piper-idin-1-yl]methyl} pyridine-4-carboxylic acid], the IC50 on KDM2B (FBXL10) is 250 to 2500 nM; on PHF8 (KDM7), 250 to 2500 nM; on KDM6A (UTX), above 2500 nM; at KDM5B (PLU-1), above 2500 nM.

Turning to `CC(N[C@@H](C)C(=O)NCc1ccccc1CO)c1cc(C(=O)O)ccn1` (stereo partly drawn) [Compound 19, 2-(1-{[(1S)-1-({[2-(hydroxymethyl)phenyl]methyl}carbamoyl)ethyl]amino}ethyl) pyridine-4-carboxylic acid], the IC50 on KDM2B (FBXL10) was 250 to 2500 nM; on PHF8 (KDM7) it was 250 to 2500 nM; at KDM6A (UTX) it was above 2500 nM.

For the molecule `CC(C)(C)c1nc2ccccn2c1CNCc1cc(C(=O)O)ccn1` [Compound 88, 2-{[({2-tert-butylimidazo[1,2-a]pyridin-3-yl}methyl)amino]methyl}pyridine-4-carboxylic acid], the half-maximal inhibitory concentration (IC50) at KDM2B (FBXL10) is 250 to 2500 nM; at PHF8 (KDM7), below 250 nM; on KDM6A (UTX), above 2500 nM; on KDM5B (PLU-1), below 250 nM.

On to `O=C(O)c1ccnc(CNC2CCc3c(Cc4ccccc4)ccnc32)c1` (centres unmarked) [Compound 92, 2-[({4-benzyl-5H,6H,7H-cyclopenta[b]pyridin-7-yl}amino)methyl]pyri-dine-4-carboxylic acid], for which the IC50 is 250 to 2500 nM on KDM2B (FBXL10), 250 to 2500 nM on PHF8 (KDM7), above 2500 nM at KDM6A (UTX) and below 250 nM on KDM5B (PLU-1).

Consider `O=C(O)c1ccnc(CN2CCCC(c3ccccc3)C2CO)c1` (centres unmarked) [Compound 63, 2-{[2-(hydroxymethyl)-3-phenylpiperidin-1-yl]methyl}pyridine-4-carboxylic acid], for which the IC50 at KDM4C (JMJD2C) and on KDM5B (PLU-1) was above 2500 nM in each case.

`CCN(CC)C(=O)CCN(CCNC(C)=O)Cc1cc(C(=O)O)ccn1` [Compound 27, 2-({[2-(diethylcarbamoyl)ethyl](2-acetamidoethyl)amino}methyl)pyridine-4-carboxylic acid]: the concentration for half-maximal inhibition (IC50) at KDM2B (FBXL10) was 250 to 2500 nM; on PHF8 (KDM7), 250 to 2500 nM; at KDM6A (UTX), above 2500 nM; on KDM5B (PLU-1), 250 to 2500 nM.

As for `CC(C)C[C@@H](CO)NCc1cc(C(=O)O)ccn1` [Compound 61, (S)-2-{[(1-hydroxy-4-methylpentan-2-yl)amino]methyl}pyri-dine-4-carboxylic acid], the IC50 at KDM4C (JMJD2C) and on KDM5B (PLU-1) was below 250 nM in each case.

For the molecule `COc1ccc([C@@H](C)N2CC[C@@H](CNCc3cc(C(=O)O)ccn3)C2=O)cc1` [Compound 78, 2-[({[(3S)-1-[(1R)-1-(4-methoxyphenyl)ethyl]-2-oxopyrrolidin-3-yl]methyl}amino)methyl]pyridine-4-carboxylic acid], the IC50 on KDM2B (FBXL10) is below 250 nM; at PHF8 (KDM7), below 250 nM; on KDM6A (UTX), above 2500 nM.

With `O=C(O)c1ccnc(CN2CCCC(C3CCCCC3)C2CO)c1` (centres unmarked) [Compound 62, 2-{[3-cyclohexyl-2-(hydroxymethyl)piperidin-1-yl]methyl}pyridine-4-carboxylic acid], the IC50 at KDM4C (JMJD2C) was above 2500 nM; at KDM5B (PLU-1), 250 to 2500 nM.

With `CSCC[C@H](NCc1cc(C(=O)O)ccn1)C(=O)OC(C)(C)C` [Compound 49, 2-({[(2S)-1-(tert-butoxy)-4-(methylsulfanyl)-1-oxobutan-2-yl]amino}methyl)pyri-dine-4-carboxylic acid], the IC50 at KDM2B (FBXL10) is 250 to 2500 nM; on PHF8 (KDM7), 250 to 2500 nM; on KDM6A (UTX), above 2500 nM.
